From patent US10927085B2, “1,2-naphthoquinone based derivative and method of preparing the same” (HUEN Co., Ltd., priority 2013, dated 2021)
Like-named read-outs stand apart in the source and are kept apart here.

How the values were obtained:
cells = assay: Measurement of lactate change amount within cells; assay type: cell-based
Description: Cells were treated with 400 μl of 6% PCA, and then collected and extracted. Centrifugation (13,000 rpm, 10 min) was performed. A precipitate was dried using a Speed-Vac and then a weight of dried precipitate was measured. A supernatant was neutralized using 400 μl of 1 M KOH and a final volume thereof was adjusted to 1 ml using 0.33 M KH2PO4/K2HPO4, pH 7.5. Centrifugation (13,000 rpm, 10 min) was performed and the amount of lactate in a supernatant was measured (Megazyme, K-LATE).

NQO1 protein = NQO1 protein (Homo sapiens, UniProt P15559); assay: NQO1 activity measurement (cytochrome C reduction); assay type: biochemical
Chain of NQO1 protein (P15559 whole entry, species assumed): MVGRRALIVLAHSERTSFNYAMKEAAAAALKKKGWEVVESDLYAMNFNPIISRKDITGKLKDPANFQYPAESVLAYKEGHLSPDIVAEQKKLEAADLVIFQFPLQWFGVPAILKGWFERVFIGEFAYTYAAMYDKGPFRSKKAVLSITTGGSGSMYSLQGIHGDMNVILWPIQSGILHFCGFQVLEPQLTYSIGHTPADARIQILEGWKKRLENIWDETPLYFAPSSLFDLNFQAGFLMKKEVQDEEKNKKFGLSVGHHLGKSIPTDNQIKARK
Description: An enzyme reaction solution included 25 mM Tris/HCl (pH 7.4), 0.14% bovine serum albumin, 200 μM NADH, 77 μM cytochrome C, and 5 ng of NQO1 protein. Enzymatic reaction was initiated by adding NADH and performed at 37° C. In this regard, a reaction rate was measured by observing absorbance, which was increased due to reduction of cytochrome C, at 550 nm for 10 minutes and NQO1 activity was represented as an amount of reduced cytochrome C [nmol cytochrome C reduced/min/μg protein].
Extinction coefficient for cytochrome C:21.1 mmol/L/cm=21.1 μmol/ml/cm

C57BL/6J Lep ob/ob mice = assay: Weight loss effects in obese mice (ob/ob); assay type: in vivo; conditions: for weight increase ratio vs controls (FIG. 1): Exp. Ex. 3-1: 6.5 week-old ob/ob mice, 100 mg/kg orally once every day for two weeks
Description: 6.5 week-old C57BL/6J Lep ob/ob mice having genetic obesity characteristics available from ORIENTBIO were prepared. Two mice were raised in each polycarbonate breeding cage (200 W×260 L×130H (mm), Three-shine) in which temperature was 22 to 24° C., relative humidity was 30 to 50%, illuminance was 150 to 300 lux, night and day were 12 hours, and exhaust was performed at 10 to 15 air changes per hour. As a feed, low fat diet (11.9 kcal % fat, 5053, Labdiet) manufactured by ORIENTBIO was used. The feed was contained in a feeder and free intake was allowed. As drinking water, water, which was contained in a 250 mL polycarbonate based bottle, purified through a filter and a sterilizer was used and free intake was allowed.
For administration, a disposable syringe fitted with a sonde for oral administration was used and 10 ml/kg of the compound was orally administered into the stomach. As controls, three C57BL/6J Lep ob/ob mice were administered 0.1% SLS in an amount of 100 mg/kg in the same manner as described above. After administration, a time-dependent weight increase ratio was measured and results are illustrated in FIG. 1 below.
Weights of the experimental animals were measured immediately before administration of a test material and six times a week from an administration initiation day to a test termination day. Increased total weights were calculated by subtracting weights measured on an experiment initiation day from weights measured one day before an experiment termination day. Food intake amounts were calculated by measuring feed supply amounts and remaining amounts twice a week from an initiation day of test material administration to a test termination day for each individual.
Weight increase ratios, weight change, and intake amounts depending on administration time were measured and results are illustrated in FIG. 2 below.
Weight increase ratios, weight change, and intake amounts depending on administration time were measured and results are illustrated in FIG. 3 below.
Weight increase ratios, weight change, and intake amounts depending on administration time were measured and results are illustrated in FIG. 4 below.
Weight increase ratios, weight change, and intake amounts depending on administration time were measured and results are illustrated in FIG. 5 below.
Weight increase ratios, weight change, and intake amounts depending on administration time were measured and results are illustrated in FIG. 6 below.
Weight increase ratios, weight change, and intake amounts depending on administration time were measured and results are illustrated in FIG. 7 below.
Weight increase ratios, weight change, and intake amounts depending on administration time were measured and results are illustrated in FIG. 8 below.

[1] = 5 μM, 37° C., absorbance at 550 nm for 10 minutes, 200 μM NADH, 77 μM cytochrome C, 5 ng NQO1 protein
[2] = Exp. Ex. 3-2: 10.5 week-old ob/ob mice, 150 mg/kg orally, six days
[3] = Exp. Ex. 3-3: 6 week-old ob/ob mice, 100 mg/kg orally, otherwise as 3-1
[4] = Exp. Ex. 3-4: 11 week-old ob/ob mice, 100 mg/kg orally, six days
[5] = Exp. Ex. 3-6: 12 week-old ob/ob mice, 150 mg/kg orally, seven days
[6] = Exp. Ex. 3-8: 9.5 week-old ob/ob mice, 150 mg/kg orally, otherwise as 3-1
[7] = Exp. Ex. 3-7: 6.5 week-old ob/ob mice, 150 mg/kg orally, seven days

With `CC(C)c1nc2c(o1)-c1ccccc1C(=O)C2=O` [Example 1, 2-isopropylnaphtho[2,1-d]oxazole-4,5-dione] the “Lactate change amount within cells (nmol/mg cell)” value (“Lactate change amount within cells” for short) (cells) was 5.2 nmol/mg cell, the “NQO1 activity (5 μM, [nmol cytochrome C reduced/min/μg protein])” value (NQO1 protein; [1]) was 255.2 nmol cytochrome C reduced/min/μg protein and the “weight increase ratio vs controls (FIG. 1)” value (C57BL/6J Lep ob/ob mice) was “significantly decreased”.

For `CC(C)(C)c1nc2c(o1)-c1ccccc1C(=O)C2=O` [Example 2, 2-tert-butylnaphtho[2,1-d]oxazole-4,5-dione], the “Lactate change amount within cells” value (cells) was 6.8 nmol/mg cell, the “NQO1 activity (5 μM, [nmol cytochrome C reduced/min/μg protein])” value (NQO1 protein; [1]) was 243.2 nmol cytochrome C reduced/min/μg protein and the “weight increase ratio vs controls (FIG. 1)” value (C57BL/6J Lep ob/ob mice) was “significantly decreased”.

`O=C1C(=O)c2nc(CN3CCOCC3)oc2-c2ccccc21` [Example 4, 2-(morpholinomethyl)naphtho[2,1-d]oxazole-4,5-dione] was tested, and the “Lactate change amount within cells” value (cells) was 9.3 nmol/mg cell, the “NQO1 activity (5 μM, [nmol cytochrome C reduced/min/μg protein])” value (NQO1 protein; [1]) was 207.3 nmol cytochrome C reduced/min/μg protein and the “intake amount vs controls (FIG. 2)” value (C57BL/6J Lep ob/ob mice; [2]) was “significantly decreased”. For the same compound, the “weight change vs controls (FIG. 2)” value (C57BL/6J Lep ob/ob mice; [2]) was “significantly decreased” and the “weight increase ratio vs controls (FIG. 2)” value (C57BL/6J Lep ob/ob mice; [2]) was “significantly decreased”.

For `CN(C)Cc1nc2c(o1)-c1ccccc1C(=O)C2=O` [Example 5, 2-((dimethylamino)methyl)naphtho[2,1-d]oxazole-4,5-dione], the “Lactate change amount within cells” value (cells) was 5.9 nmol/mg cell, the “intake amount vs controls (FIG. 2)” value (C57BL/6J Lep ob/ob mice; mouse, in vivo, po, 150 mg/kg) was “significantly decreased” and the “weight change vs controls (FIG. 2)” value (C57BL/6J Lep ob/ob mice; mouse, in vivo, po, 150 mg/kg) was “significantly decreased”.

`COc1cccc2c1-c1oc(C(C)C)nc1C(=O)C2=O` [Example 8, 2-isopropyl-9-methoxynaphtho[2,1-d]oxazole-4,5-dione] was tested, and the “Lactate change amount within cells” value (cells) was 6.2 nmol/mg cell, the “NQO1 activity (5 μM, [nmol cytochrome C reduced/min/μg protein])” value (NQO1 protein; [1]) was 205.1 nmol cytochrome C reduced/min/μg protein and the “intake amount vs controls (FIG. 3)” value (C57BL/6J Lep ob/ob mice; [3]) was “significantly decreased”. For the same compound, the “weight increase ratio vs controls (FIG. 3)” value (C57BL/6J Lep ob/ob mice; [3]) was “significantly decreased”.

`COc1ccc(Br)c2c1-c1oc(C(C)C)nc1C(=O)C2=O` [Example 9, 6-bromo-2-isopropyl-9-methoxynaphtho[2,1-d]oxazole-4,5-dione] was tested, and the “Lactate change amount within cells” value (cells) was 7.3 nmol/mg cell, the “NQO1 activity (5 μM, [nmol cytochrome C reduced/min/μg protein])” value (NQO1 protein; [1]) was 73.6 nmol cytochrome C reduced/min/μg protein and the “weight change vs controls (FIG. 4)” value (C57BL/6J Lep ob/ob mice; [4]) was “significantly decreased”. The “weight increase ratio vs controls (FIG. 4)” value (C57BL/6J Lep ob/ob mice; [4]) was “significantly decreased”.

In the case of `O=C1C(=O)c2oc(-c3ccccc3)nc2-c2ccccc21` [Example 27], the “Lactate change amount within cells” value (cells) is reported as 5.8 nmol/mg cell and the “weight change vs controls (FIG. 4)” value (C57BL/6J Lep ob/ob mice; mouse, in vivo, po, 100 mg/kg) is reported as “significantly decreased”.

With `CC(C)(C)c1nc2c(o1)C(=O)C(=O)c1ccccc1-2` [Example 28, 2-tert-butylnaphtho[1,2-d]oxazole-4,5-dione] the “Lactate change amount within cells” value (cells) was 7.4 nmol/mg cell and the “intake amount vs controls (FIG. 3)” value (C57BL/6J Lep ob/ob mice; mouse, in vivo, po, 100 mg/kg) was “significantly decreased”.

For `CC(C)(C)c1nc2c(o1)C(=O)C(=O)c1cc(N)ccc1-2` [Example 30, 7-amino-2-tert-butylnaphtho[1,2-d]oxazole-4,5-dione], the “Lactate change amount within cells” value (cells) was 7.3 nmol/mg cell, the “intake amount vs controls (FIG. 5)” value (C57BL/6J Lep ob/ob mice; mouse, in vivo, po, 150 mg/kg) was “significantly decreased” and the “weight change vs controls (FIG. 5)” value (C57BL/6J Lep ob/ob mice; mouse, in vivo, po, 150 mg/kg) was “significantly decreased”.

`O=C1C(=O)c2oc(-c3ccc(F)cc3)nc2-c2cccnc21` [Example 36] was tested, and the “Lactate change amount within cells” value (cells) was 7.3 nmol/mg cell, the “NQO1 activity (5 μM, [nmol cytochrome C reduced/min/μg protein])” value (NQO1 protein; [1]) was 936.1 nmol cytochrome C reduced/min/μg protein and the “intake amount vs controls (FIG. 6)” value (C57BL/6J Lep ob/ob mice; [5]) was “significantly decreased”. The “weight change vs controls (FIG. 6)” value (C57BL/6J Lep ob/ob mice; [5]) was “significantly decreased” and the “weight increase ratio vs controls (FIG. 6)” value (C57BL/6J Lep ob/ob mice; [5]) was “significantly decreased”.

In the case of `CCn1c2c(oc1=O)-c1ccccc1C(=O)C2=O` [Example 41], the “Lactate change amount within cells” value (cells) is reported as 5.2 nmol/mg cell, the “NQO1 activity (5 μM, [nmol cytochrome C reduced/min/μg protein])” value (NQO1 protein) is reported as 237.1 nmol cytochrome C reduced/min/μg protein and the “intake amount vs controls (FIG. 7)” value (C57BL/6J Lep ob/ob mice; mouse, in vivo, po, 150 mg/kg) is reported as “significantly decreased in some sections”. For the same compound, the “weight change vs controls (FIG. 7)” value (C57BL/6J Lep ob/ob mice; mouse, in vivo, po, 150 mg/kg) was “significantly decreased in some sections” and the “weight increase ratio vs controls (FIG. 7)” value (C57BL/6J Lep ob/ob mice; mouse, in vivo, po, 150 mg/kg) was “significantly decreased in some sections”.

For `O=C1C(=O)c2c(oc(=O)n2Cc2ccc(F)cc2)-c2ccccc21` [Example 42], the “Lactate change amount within cells” value (cells) was 7.1 nmol/mg cell, the “NQO1 activity (5 μM, [nmol cytochrome C reduced/min/μg protein])” value (NQO1 protein; [1]) was 208.0 nmol cytochrome C reduced/min/μg protein and the “intake amount vs controls (FIG. 8)” value (C57BL/6J Lep ob/ob mice; [6]) was “significantly decreased in some sections”. For the same compound, the “weight change vs controls (FIG. 8)” value (C57BL/6J Lep ob/ob mice; [6]) was “significantly decreased in some sections” and the “weight increase ratio vs controls (FIG. 8)” value (C57BL/6J Lep ob/ob mice; [6]) was “significantly decreased in some sections”.

In the case of `CCc1nc2c(o1)C(=O)C(=O)c1ccccc1-2` [Example 51], the “Lactate change amount within cells” value (cells) is reported as 5.7 nmol/mg cell, the “NQO1 activity (5 μM, [nmol cytochrome C reduced/min/μg protein])” value (NQO1 protein; [1]) is reported as 240.9 nmol cytochrome C reduced/min/μg protein and the “intake amount vs controls (FIG. 7)” value (C57BL/6J Lep ob/ob mice; [7]) is reported as “significantly decreased in some sections”. The “weight change vs controls (FIG. 7)” value (C57BL/6J Lep ob/ob mice; [7]) was “significantly decreased in some sections” and the “weight increase ratio vs controls (FIG. 7)” value (C57BL/6J Lep ob/ob mice; [7]) was “significantly decreased in some sections”.
